Data reported in patent US20230203098A1, “HUMAN TRANSFERRIN RECEPTOR BINDING PEPTIDE” (priority 2020, published 2023).
Where two headings read alike, the source gives them in different places. Blank lines part the entries; values can stand above or below the compound they belong to. Where a SMILES comes first, the peptide text is derived from it. Bridges are numbered along the chain shown (N, C = ends). [ ]: non-standard residue; d: D form. The star is where a group is joined. X2 = O=C(O)c1cc(C(=O)*)ccc1-c1c2ccc(=O)cc-2oc2cc(O)ccc12; PEG12 = NCCOCCOCCOCCOCCOCCOCCOCCOCCOCCOCCOCCOCCC(=O)O; NMePhe(3-Cl) = CN[C@@H](Cc1cccc(Cl)c1)C(=O)O; NMeW = CN[C@@H](Cc1c[nH]c2ccccc12)C(=O)O; NMeY = CN[C@@H](Cc1ccc(O)cc1)C(=O)O; NMeH = CN[C@@H](Cc1c[nH]cn1)C(=O)O; NMeF = CN[C@@H](Cc1ccccc1)C(=O)O; PEG4 = NCCOCCOCCOCCOCCC(=O)O; X1 = CN[C@H](CCCCN*)C(=O)O; Nle = CCCC[C@H](N)C(=O)O; Dap = NC[C@H](N)C(=O)O

Target: transferrin receptor (hTfR) (Homo sapiens, UniProt P02786)
Sequence (P02786 whole entry): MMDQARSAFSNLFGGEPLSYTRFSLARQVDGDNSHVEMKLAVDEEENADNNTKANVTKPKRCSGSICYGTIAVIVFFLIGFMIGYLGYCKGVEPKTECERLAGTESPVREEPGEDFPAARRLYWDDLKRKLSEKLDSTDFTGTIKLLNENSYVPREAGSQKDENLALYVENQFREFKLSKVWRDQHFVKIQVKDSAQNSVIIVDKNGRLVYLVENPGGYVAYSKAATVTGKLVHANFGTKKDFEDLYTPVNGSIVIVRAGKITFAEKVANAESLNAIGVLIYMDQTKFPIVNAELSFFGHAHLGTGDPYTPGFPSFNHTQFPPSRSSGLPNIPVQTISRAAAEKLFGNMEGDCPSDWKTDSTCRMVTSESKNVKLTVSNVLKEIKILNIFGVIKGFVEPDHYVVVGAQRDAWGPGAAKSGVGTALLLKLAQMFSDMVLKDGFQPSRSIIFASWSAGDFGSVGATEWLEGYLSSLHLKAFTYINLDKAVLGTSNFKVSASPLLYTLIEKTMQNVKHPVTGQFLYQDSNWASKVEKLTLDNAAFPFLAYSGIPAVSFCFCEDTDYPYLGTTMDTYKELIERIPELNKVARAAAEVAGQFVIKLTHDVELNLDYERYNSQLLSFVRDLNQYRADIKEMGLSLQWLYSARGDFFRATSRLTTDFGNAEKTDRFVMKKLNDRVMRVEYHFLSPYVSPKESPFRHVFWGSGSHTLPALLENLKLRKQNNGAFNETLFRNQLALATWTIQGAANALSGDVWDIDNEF
Assay: Intermolecular interaction evaluation test between transferrin receptor (hTfR) and peptide by surface plasmon resonance (SPR)
Type: binding
In short: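 hTfR captured on Ni-NTA chip then amine-coupled; peptides run single-cycle kinetics at 5–100 nM in 10 mM HEPES pH 8.0, 150 mM NaCl, 0.05% Tween 20, 0.1% BSA, 1.0% DMSO. KD from least-squares curve fitting of sensorgrams.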

[1] = surface plasmon resonance, hTfR, read-out: KD value for hTfR by SPR (class symbol)
[2] = surface plasmon resonance, peptide vs hTfR, read-out: KD value, hTfR binding by SPR (class symbol)
[3] = SPR, peptides, linker-added peptides and FITC conjugates, Patent ID 203-230, read-out: KD
[4] = SPR, hTfR No. 894 variants with PEG12c linker (Table 2), read-out: KD

Structure (SMILES): CC[C@H](C)[C@@H]1NC(=O)[C@H](Cc2ccc(O)cc2)NC(=O)[C@H](Cc2ccc(O)cc2)NC(=O)[C@H](CC(N)=O)NC(=O)[C@H](Cc2c[nH]c3ccc(Cl)cc23)NC(=O)[C@H](C(C)C)NC(=O)[C@H](Cc2ccccc2)N(C)C(=O)[C@H](C(C)C)NC(=O)[C@H](C)NC(=O)CSC[C@@H](C(N)=O)NC(=O)[C@H](Cc2ccc(O)cc2)N(C)C(=O)[C@H](Cc2ccc(O)cc2)NC(=O)[C@H](CCCNC(=N)N)NC(=O)[C@H](CCCNC(=N)N)NC(=O)[C@H]([C@@H](C)CC)NC1=O [compound 268]
Kd (binding to hTfR by SPR, Table 2 peptides, read-out: KD value (SPR) class): 1 to 100 nM

Structure (SMILES): CC[C@H](C)[C@@H]1NC(=O)[C@H](Cc2ccc(OC)cc2)NC(=O)[C@H](Cc2ccc(O)cc2)NC(=O)[C@H](CC(N)=O)NC(=O)[C@H](Cc2c[nH]c3ccccc23)N(C)C(=O)[C@H](C(C)C)NC(=O)[C@H](Cc2cccc(Cl)c2)N(C)C(=O)[C@H](C(C)C)NC(=O)[C@H](C)NC(=O)CSC[C@@H](C(=O)NCCOCCOCCOCCOCCC(N)=O)NC(=O)[C@H](Cc2ccc(O)cc2)N(C)C(=O)[C@H](Cc2ccccc2)NC(=O)[C@@H](CCCNC(=N)N)NC(=O)[C@H](CN)NC(=O)[C@H]([C@@H](C)CC)NC1=O [compound 365] ({CH2CO}-AV[NMePhe(3-Cl)]V[NMeW]NYY(Me)II[Dap][dR]F[NMeY]C[PEG4]-NH2; thioether N-15)
Kd [1]: 1 to 100 nM

Structure (SMILES): CC[C@H](C)[C@@H]1NC(=O)[C@H](Cc2ccc(OC)cc2)NC(=O)[C@H](Cc2ccc(O)cc2)NC(=O)[C@H](CC(N)=O)NC(=O)[C@H](Cc2c[nH]c3ccccc23)N(C)C(=O)[C@H](C(C)C)NC(=O)[C@H](Cc2cccc(Cl)c2)N(C)C(=O)[C@H](CCC(=O)O)NC(=O)[C@H](C)NC(=O)CSC[C@@H](C(=O)NCC(=O)NCC(=O)NCC(=O)NCC(=O)N[C@@H](CO)C(=O)N[C@@H](CO)C(=O)N[C@@H](CS)C(N)=O)NC(=O)[C@H](Cc2ccc(O)cc2)N(C)C(=O)[C@H](Cc2ccccc2)NC(=O)[C@@H](CCCNC(=N)N)NC(=O)[C@H](CCCNC(=N)N)NC(=O)[C@H]([C@@H](C)CC)NC1=O [compound 234]
Kd: 1 to 100 nM

Structure (SMILES): CC[C@H](C)[C@@H]1NC(=O)[C@H](Cc2ccc(OC)cc2)NC(=O)[C@H](Cc2ccc(O)cc2)NC(=O)[C@H](CC(N)=O)NC(=O)[C@H](Cc2cn(CC(=O)O)c3ccccc23)NC(=O)[C@H](C(C)C)NC(=O)[C@H](Cc2cccc(Cl)c2)N(C)C(=O)[C@H](C(C)C)NC(=O)[C@H](C)NC(=O)CSC[C@@H](C(N)=O)NC(=O)[C@H](Cc2ccc(O)cc2)N(C)C(=O)[C@H](Cc2ccccc2)NC(=O)[C@@H](CCCNC(=N)N)NC(=O)[C@H](CCCNC(=N)N)NC(=O)[C@H]([C@@H](C)CC)NC1=O [compound 306]
Kd [2]: 1 to 100 nM

Structure (SMILES): CC[C@H](C)[C@@H]1NC(=O)[C@H](Cc2ccc(O)cc2)NC(=O)[C@H](Cc2ccc(O)cc2)NC(=O)[C@H](CC(N)=O)NC(=O)[C@H](Cc2c[nH]c3ccccc23)NC(=O)[C@H](C(C)C)NC(=O)[C@H](Cc2ccccc2)N(C)C(=O)[C@H](C(C)C)NC(=O)[C@H](C)NC(=O)CSC[C@@H](C(=O)NCCOCCOCCOCCOCCOCCOCCOCCOCCOCCOCCOCCOCCC(N)=O)NC(=O)[C@H](Cc2ccc(O)cc2)N(C)C(=O)[C@H](Cc2ccc(O)cc2)NC(=O)[C@H](CCCNC(=N)N)NC(=O)[C@H](Cc2ccc(O)cc2)NC(=O)[C@H]([C@@H](C)CC)NC1=O [compound 121] ({CH2CO}-AV[NMeF]VWNYYIIYRY[NMeY]C[PEG12]-NH2; thioether N-15)
Kd [4]: 1 to 100 nM

Structure (SMILES): CC[C@H](C)[C@@H]1NC(=O)[C@H](Cc2ccc(OC)cc2)NC(=O)[C@H](Cc2ccc(O)cc2)NC(=O)[C@H](CC(N)=O)NC(=O)[C@H](Cc2c[nH]c3ccccc23)N(C)C(=O)[C@H](C(C)C)NC(=O)[C@H](Cc2cccc(Cl)c2)N(C)C(=O)[C@H](C(C)C)NC(=O)[C@H](C)NC(=O)CSC[C@@H](C(=O)NCC(=O)NCC(=O)NCC(=O)NCC(=O)N[C@@H](CO)C(=O)N[C@@H](CO)C(=O)N[C@@H](CS)C(N)=O)NC(=O)[C@H](Cc2ccc(O)cc2)N(C)C(=O)[C@H](Cc2ccccc2)NC(=O)[C@@H](CCCNC(=N)N)NC(=O)[C@H](CN)NC(=O)[C@H]([C@@H](C)CC)NC1=O [compound 367]
Kd: 1 to 100 nM

Structure (SMILES): CC[C@H](C)[C@@H]1NC(=O)[C@H](Cc2ccc(O)cc2)NC(=O)[C@H](Cc2ccc(O)cc2)NC(=O)[C@H](CC(N)=O)NC(=O)[C@H](Cc2c[nH]c3ccccc23)NC(=O)[C@H](C(C)C)NC(=O)[C@H](Cc2ccccc2)N(C)C(=O)[C@H](C(C)C)NC(=O)[C@H](C)NC(=O)CSC[C@@H](C(=O)NCCOCCOCCOCCOCCOCCOCCOCCOCCOCCOCCOCCOCCC(N)=O)NC(=O)[C@H](CCCNC(=N)N)NC(=O)[C@H](Cc2ccc(O)cc2)NC(=O)[C@H](CCCNC(=N)N)NC(=O)[C@H](CCCNC(=N)N)NC(=O)[C@H]([C@@H](C)CC)NC1=O [compound 127]
Kd [4]: 1 to 100 nM

Structure (SMILES): CC[C@H](C)[C@@H]1NC(=O)[C@H](Cc2ccc(O)cc2)NC(=O)[C@H](Cc2ccc(O)cc2)NC(=O)[C@H](CC(N)=O)NC(=O)[C@H](Cc2c[nH]c3ccccc23)N(C)C(=O)[C@H](C(C)C)NC(=O)[C@H](Cc2ccccc2)N(C)C(=O)[C@H](C(C)C)NC(=O)[C@H](C)NC(=O)CSC[C@@H](C(=O)NCCOCCOCCOCCOCCOCCOCCOCCOCCOCCOCCOCCOCCC(=O)N[C@@H](CCCCNC(=O)C2CCC(CN3C(=O)C=CC3=O)CC2)C(N)=O)NC(=O)[C@H](Cc2ccc(O)cc2)N(C)C(=O)[C@H](Cc2ccc(O)cc2)NC(=O)[C@H](CCCNC(=N)N)NC(=O)[C@H](CCCNC(=N)N)NC(=O)[C@H]([C@@H](C)CC)NC1=O (some centres unmarked) [compound 183]
Kd (hTfR binding by SPR, hTfR No. 894 variant peptides, linker-added peptides and payload conjugates (Table 2), read-out: KD value obtained from the SPR measurement): 1 to 100 nM

Second part, the compound after the results:

Kd [2]: 1 to 100 nM
Structure (SMILES): CC[C@H](C)[C@@H]1NC(=O)[C@H](Cc2ccc(OC)cc2)NC(=O)[C@H](Cc2ccc(O)cc2)NC(=O)[C@H](CC(N)=O)NC(=O)[C@H](Cc2c[nH]c3ccccc23)N(C)C(=O)[C@H](C(C)C)NC(=O)[C@H](Cc2cccc(Cl)c2)N(C)C(=O)[C@H](C(C)C)NC(=O)[C@H](C)NC(=O)CSC[C@@H](C(N)=O)NC(=O)[C@H](Cc2ccc(O)cc2)N(C)C(=O)[C@H](Cc2ccccc2)NC(=O)[C@@H](CCCNC(=N)N)NC(=O)[C@H](CCCNC(=N)N)NC(=O)[C@H](CCC(=O)NCCCC[C@@H](NC)C(=O)O)NC1=O [compound 346] ({CH2CO}-AV[NMePhe(3-Cl)]V[NMeW]NYY(Me)IE(X1)R[dR]F[NMeY]C-NH2; thioether N-15)

Kd [3]: 1 to 100 nM
Structure (SMILES): CC[C@H](C)[C@@H]1NC(=O)[C@H](Cc2ccc(O)cc2)NC(=O)[C@H](Cc2ccc(O)cc2)NC(=O)[C@H](CC(N)=O)NC(=O)[C@H](Cc2c[nH]c3ccccc23)NC(=O)[C@H](C(C)C)NC(=O)[C@H](Cc2ccccc2)NC(=O)[C@H](CCC(=O)O)NC(=O)[C@H](C)NC(=O)CSC[C@@H](C(N)=O)NC(=O)[C@H](Cc2ccc(O)cc2)N(C)C(=O)[C@H](Cc2ccc(O)cc2)NC(=O)[C@H](CCCNC(=N)N)NC(=O)[C@H](CCCNC(=N)N)NC(=O)[C@H]([C@@H](C)CC)NC1=O [compound 219]

Kd [3]: 1 to 100 nM
Structure (SMILES): CC[C@H](C)[C@@H]1NC(=O)[C@H](Cc2ccc(OC)cc2)NC(=O)[C@H](Cc2ccc(O)cc2)NC(=O)[C@H](CC(N)=O)NC(=O)[C@H](Cc2c[nH]c3ccccc23)N(C)C(=O)[C@H](C(C)C)NC(=O)[C@H](Cc2cccc(Cl)c2)N(C)C(=O)[C@H](C(C)C)NC(=O)[C@H](C)N(C)C(=O)CSC[C@@H](C(N)=O)NC(=O)[C@H](Cc2ccc(O)cc2)N(C)C(=O)[C@H](Cc2ccccc2)NC(=O)[C@H](CCCNC(=N)N)NC(=O)[C@H](CCCNC(=N)N)NC(=O)[C@H]([C@@H](C)CC)NC1=O [compound 214]

Kd [1]: 1 to 100 nM
Structure (SMILES): CCCC[C@@H]1NC(=O)[C@H]([C@@H](C)CC)NC(=O)[C@H]([C@@H](C)CC)NC(=O)[C@H](Cc2ccc(OC)cc2)NC(=O)[C@H](Cc2ccc(O)cc2)NC(=O)[C@H](CC(N)=O)NC(=O)[C@H](Cc2c[nH]c3ccccc23)N(C)C(=O)[C@H](C(C)C)NC(=O)[C@H](Cc2cccc(Cl)c2)N(C)C(=O)[C@H](C(C)C)NC(=O)[C@H](C)NC(=O)CSC[C@@H](C(=O)NCCOCCOCCOCCOCCC(N)=O)NC(=O)[C@H](Cc2ccc(O)cc2)N(C)C(=O)[C@H](Cc2ccccc2)NC(=O)[C@@H](CCCNC(=N)N)NC1=O [compound 361] ({CH2CO}-AV[NMePhe(3-Cl)]V[NMeW]NYY(Me)II[Nle][dR]F[NMeY]C[PEG4]-NH2; thioether N-15)

Kd [2]: 1 to 100 nM
Structure (SMILES): CC[C@H](C)[C@@H]1NC(=O)[C@H](Cc2ccc(O)cc2)NC(=O)[C@H](Cc2ccc(O)cc2)NC(=O)[C@H](CC(N)=O)NC(=O)[C@H](Cc2c[nH]c3ccccc23)N(C)C(=O)[C@H](C(C)C)NC(=O)[C@H](Cc2ccccc2)N(C)C(=O)[C@H](C(C)C)NC(=O)[C@H](C)NC(=O)CSC[C@@H](C(N)=O)NC(=O)[C@H](Cc2ccc(O)cc2)N(C)C(=O)[C@H](Cc2ccc(O)cc2)NC(=O)[C@H](CCCNC(=N)N)NC(=O)[C@H](CCCNC(=N)N)NC(=O)[C@H]([C@@H](C)CC)NC1=O [compound 299]

Kd (SPR, linker and payload (FITC, VivoTag) conjugates, read-out: KD): 1 to 100 nM
Structure (SMILES): CC[C@H](C)[C@@H]1NC(=O)[C@H](CCCNC(=N)N)NC(=O)[C@H](CC(N)=O)NC(=O)[C@H](C)NC(=O)CSC[C@@H](C(=O)NCCOCCOCCOCCOCCOCCOCCOCCOCCOCCOCCOCCOCCC(=O)N[C@@H](CCCCNC(=O)c2ccc(-c3c4ccc(=O)cc-4oc4cc(O)ccc34)c(C(=O)O)c2)C(N)=O)NC(=O)[C@H](Cc2c[nH]cn2)N(C)C(=O)[C@H](CCCNC(=N)N)NC(=O)[C@@H]2CCCN2C(=O)[C@H]([C@@H](C)CC)NC(=O)[C@H]([C@@H](C)CC)NC(=O)[C@H](Cc2ccc(O)cc2)NC(=O)[C@H](Cc2ccc(O)cc2)NC(=O)[C@H](CC(N)=O)NC(=O)[C@H](Cc2c[nH]c3ccccc23)NC(=O)[C@H](C(C)C)NC(=O)[C@H](Cc2ccccc2)NC(=O)[C@H](C(C)C)NC1=O [compound 154] ({CH2CO}-ANRIVFVWNYYIIPR[NMeH]C[PEG12]K(X2)-NH2; thioether N-17)
